Measurements taken from patent publication US9259443B2, “Compositions and methods for the generation of platelets and methods of use thereof” (The Children's Hospital of Philadelphia, priority 2010, dated 2016).

Assays:
NSG mice = assay: Infusion of human platelets or human ex vivo-grown megakaryocytes into NSG mice; assay type: in vivo, mouse; details: for time of spike of platelets after infusion: NSG mice; for platelets per megakaryocyte: two million large cells
Description: FIG. 7A provides a graph of human platelets infused into immune-suppressed NOD/SCID/[…] NSG mice over time. FIG. 7B provides a graph of the percentage of human platelets over time after infusion of fetal liver megakaryocytes into NSG mice. FIG. 7C provides a graph of human platelets over time after infusion of dimethylfasudil (diMF; 5 μM), a Rho/ROCK1 kinase inhibitor, treated human fetal liver megakaryocytes (large cells) into NSG mice. FIG. 7D provides a graph of human platelets over time after infusion of human megakaryocytes (large cell) from CD34+ bone marrow cells into NSG mice. FIG. 7E provides a graph of human platelets over time after infusion of dimethylfasudil (2 μM)-treated human CD34+ bone marrow megakaryocytes (large cell) into NSG mice.
NSG mice (Shultz et al. (2007) Nat. Rev. Immunol., 7:118-130; Shultz et al. (2005) J. Immunol., 174:6477-89) were infused with human platelets. […] When human fetal liver (FL) megakaryocytes were infused into NSG mice, a spike of platelets was observed within 10 hours of infusion (FIG. 7B). Two million large cells infused yielded about 13 platelets per megakaryocyte.
To increase platelet production, dimethylfasudil (diMF), a Rho/ROCK1 kinase inhibitor, was tested for its ability to promote human FL megakaryocyte maturation. […] Further, the infusion of two million large cells yielded only about 6 platelets per megakaryocyte. Next, human-Megs (large) from bone marrow (BM) CD34+ cells were infused into NSG mice. […] Further, the infusion of two million large cells yielded about 70 platelets per megakaryocyte. When BM CD34+ Megs (large) were treated with DiMF (2 μm) and infused into NSG mice, a spike of platelets was observed immediately (FIG. 7E). Further, the infusion of two million large cells yielded only about 4 platelets per megakaryocyte.

hαIIb+ recipient mice = assay: FL cells grown with metalloproteinase (ADAM17) inhibitors, infused into hαIIb+ mice, derived platelet half-life; assay type: in vivo, mouse
[1] = BM CD34+ Megs (large) treated with DiMF 2 μm
[2] = human FL-megakaryocytes (large) treated with DiMF 5 μm

Cc1cncc2cccc(S(=O)(=O)N3CCCNC[C@@H]3C)c12 [DiMF, dimethylfasudil]
time of spike of platelets after infusion (NSG mice; [1]): immediately | platelets per megakaryocyte (NSG mice; [1]): about 4 | time of spike of platelets after infusion (NSG mice; [2]): within about one hour | platelets per megakaryocyte (NSG mice; [2]): about 6

CNC(=O)[C@H](Cc1c[nH]c2ccccc12)NC(=O)[C@@H](CC(=O)NO)CC(C)C [GM6001]
change in derived platelet half-life (hαIIb+ recipient mice; FL cells grown with GM6001 100 μM): no change

CC(C)C[C@H](CC(=O)NO)C(=O)N[C@@H](Cc1ccc2ccccc2c1)C(=O)N[C@@H](C)C(=O)NCCN [TAP-1]
change in derived platelet half-life (hαIIb+ recipient mice; FL cells grown with TAP-1 10 μM): no change
